Results reported in US10975042B2, “Method for purifying an amino acid-n-carboxy anhydride” (SHIN-ETSU CHEMICAL CO., LTD., priority 2018, dated 2021).

Experiments:
[1] = Solubility of NCA to good solvent and poor solvent, visual observation; type: physicochemical
Description: The method to determine that the solvent is a good solvent for NCA includes a method of adding a good solvent to NCA with stirring, followed by visual observation to confirm that the NCA has been dissolved without forming turbidity, but is not particularly limited if complete dissolution can be determined by the method.
The method to determine that the solvent is a poor solvent for NCA is not particularly limited if total insolubility can be confirmed, including a method of adding a poor solvent to NCA with stirring, followed by confirming that the NCA is not dissolved at all and turbidity is not observed by visual inspection.
On the other hand, in order to determine the solubility of NCA to n-hexane, which is a poor solvent, 0.2 g of the purified NCA shown by the structural formula (A) was tried to be dissolved in 2.0 g of n-hexane.
[…] On the other hand, as a method to determine the solubility to a poor solvent, 2.0 g of n-hexane was added to 0.2 g of each NCA after purification.

[2] = Long-term storage stability of NCA, purity by DSC; type: physicochemical; details: DSC
Description: In Examples and Comparative Examples, the purity of each NCA was measured using differential scanning calorimeter (DSC) in accordance with 2.52 thermal analysis method of The Japanese Pharmacopoeia, 17th ed. (2.4.4. measurement of purity). The measurement was performed using Thermo plus EVO DSC8230 (manufactured by Rigalu Corporation) as a measurement apparatus with the sample amount of 1 mg at a temperature increasing rate of 1° C./minute. Incidentally, it is conceived that precise measurement cannot be guaranteed unless the purity is 98 mol % or more according to 2.52 thermal analysis method of The Japanese Pharmacopoeia, 17th ed. (2.4.4. measurement of purity).
Each purified NCA was evaluated for long-term storage stability. […] Regarding the conditions of −20±5° C., the results of purity measured by DSC at after a half year, after 1 year, and after 2 years are shown. Regarding the conditions of 0 to 5° C., the results of purity measured by DSC at after 1 month, 2 months, and a half year are shown. As a comparison, commercially available NCA shown by the general formula (A) (manufactured by Isochem), the purity of which is more than 98 mol % based on the DSC measurement, was evaluated and shown as Comparison 1. This NCA has a residual chlorine concentration of 0.030 mass % and belongs to a lot with extremely low residual chlorine concentration in commercially available NCAs.

solubility of NCA to n-hexane (poor solvent), purified NCA ([1]; 0.2 g purified NCA in 2.0 g n-hexane): dissolution was not determined visually
Purity after purification ([2]; initial value of storage test at 0 to 5° C.): 98.93 mol %
Purity after purification ([2]; initial value of storage test at −20±5° C.): 98.93 mol %
Purity after 1 month from purification ([2]; storage at 0 to 5° C., 1 month): 98.93 mol %
Purity after 2 months from purification ([2]; storage at 0 to 5° C., 2 months): 98.92 mol %
Purity after a half year from purification ([2]; storage at 0 to 5° C.): 98.90 mol %
Purity after 1 year from purification ([2]; storage at −20±5° C., 1 year): 98.92 mol %
Purity after 2 years from purification ([2]; storage at −20±5° C., 2 years): 98.90 mol %
Purity after a half year from purification ([2]; storage at −20±5° C.): 98.94 mol %
Structure (SMILES): CC(C)(C)OC(=O)CCC1CC(=O)OC1=O (centres unmarked) [(A)]
solubility of NCA to ethyl acetate (good solvent), purified NCA ([1]; 0.2 g purified NCA in 1.0 g ethyl acetate): undissolved impurity was not determined visually
solubility of NCA to ethyl acetate (good solvent), NCA before purification ([1]; NCA before purification in ethyl acetate): undissolved impurities were determined visually
